Data from US8470803B2, “Boron-containing small molecules” (Anacor Pharmaceuticals, Inc., priority 2008, dated 2013).

What was measured:
[1] = tested on: TNF-α; assay: Cytokine assay: TNF-α release, LPS-induced PBMC; type: cell-based; conditions: human PBMC, 1 μg/mL LPS, supernatant at 24 hours
Protocol: (§1) Frozen human peripheral blood mononucleocytes (PBMC) were thawed and centrifuged. Cryopreservation media was aspirated off of the cell pellet, and the cells were resuspended in fresh culture media (CM) comprising RPMI 1640 and 10% FBS in 96 well plates. Test article was dissolved in DMSO to form a 10 mM sample (DMSO, 100%). The 10 mM samples were diluted to 100 μM in CM (DMSO, 1%), then further diluted to 10, 1, 0.1, 0.01 μM in 200 μL of CM (n=3). Inducer (1 μg/mL) LPS for TNF-α or 20 ug/mL PHA for IFNγ, IL-2, IL-4, IL-5 and IL-10. IL-23 was induced with 100 ng/ml IFN-g+[…], using THP-1 cells. Vehicle (1% DMSO) was used as a control for this experiment. Vehicle without inducer was used as a negative control. Cells were incubated at 37° C., 5% CO2. Supernatants were extracted at 24 hours (for TNF-α, IL-2 and IFNγ) and 48 hours (for IL-4, IL-5, IL-10 and IL-23), and stored at −20° C. Supernatants were thawed and assayed for cytokine expression using the fluorochrome-labeled cytokine-specific beads and a BD FACSArray™. IL-23 was assayed using a commercial ELISA kit (R&D Systems).

[2] = tested on: IL-2; assay: Cytokine assay: IL-2 release, PHA-induced PBMC; type: cell-based; conditions: human PBMC, 20 ug/mL PHA, 24 hours
Protocol: as §1

[3] = tested on: IL-γ; assay: Cytokine assay: IFNγ (IL-γ [sic]) release, PHA-induced PBMC; type: cell-based; conditions: human PBMC, 20 ug/mL PHA, 24 hours
Protocol: as §1

[4] = tested on: IL-4; assay: Cytokine assay: IL-4 release, PHA-induced PBMC; type: cell-based; conditions: human PBMC, 20 ug/mL PHA, 48 hours
Protocol: as §1

[5] = tested on: IL-5; assay: Cytokine assay: IL-5 release, PHA-induced PBMC; type: cell-based; conditions: human PBMC, 20 ug/mL PHA, 48 hours
Protocol: as §1

[6] = tested on: IL-10; assay: Cytokine assay: IL-10 release, PHA-induced PBMC; type: cell-based; conditions: human PBMC, 20 ug/mL PHA, 48 hours
Protocol: as §1

[7] = tested on: T1, PDE4 partially purified from human U-937 myeloid leukemia cells; assay: PDE4 assay ([3H]cAMP hydrolysis); type: biochemical; conditions: PDE4 from U-937 cells, 1 mM cAMP, pH 7.5, 20 minutes at 25° C.
T1 construct: PDE4 partially purified from human U-937 myeloid leukemia cells was used
Protocol: PDE4 partially purified from human U-937 myeloid leukemia cells was used. Test article and/or vehicle was incubated with 0.2 mg enzyme and 1 mM cAMP containing 0.01 mM [3H]cAMP in Tris buffer pH 7.5 for 20 minutes at 25° C. The reaction was terminated by boiling for 2 minutes and the resulting AMP is converted to adenosine by addition of 10 mg/ml snake venom nucleotidase and further incubation at 37° C. for 10 minutes. Unhydrolyzed cAMP is bound to AG1-X2 resin, and remaining [3H]Adenosine in the aqueous phase is quantitated by scintillation counting.

[8] = tested on: IL-23; assay: Cytokine assay: IL-23 release, IFN-g + LPS induced THP-1 cells; type: cell-based; conditions: Homo sapiens, 100 ng/ml IFN-g + 1 mg/ml LPS, 48 hours, ELISA
Protocol: as §1

[9] = biological target: K-ATP channel; conditions: K-ATP channel (SUR) binding; cited from earlier work

| SMILES | IC50 [1] [nM] | IC50 [2] [nM] | IC50 [3] [nM] | IC50 [4] [nM] | IC50 [5] [nM] | IC50 [6] [nM] | IC50 [7] [nM] | IC50 [8] [nM] | pKi [9] |
| --- | --- | --- | --- | --- | --- | --- | --- | --- | --- |
| CC(C)(C)OC(=O)N(c1ccc(C#N)cc1)c1ccc2c(c1)COB2O [C1, 5-[N-tert-Butoxycarbonyl-(4-cyanophenylamino)]-1,3-dihydro-1-hydroxybenzoxaborole] | 1100 | 960 | 620 | > 10000 | 2420 | 5590 | 2750 | – | – |
| N#Cc1ccc(Nc2ccc3c(c2)COB3O)cc1 [C2, 5-(4-Cyanophenylamino)-1,3-dihydro-1-hydroxybenzoxaborole] | 1080 | 130 | 1510 | > 10000 | 6830 | > 10000 | 414 | 7350 | – |
| CN(c1ccc(C#N)cc1)c1ccc2c(c1)COB2O [C3, 5-[N-(4-Cyanophenyl)-N-methylamino]-1,3-dihydro-1-hydroxybenzoxaborole] | 1300 | 880 | 2000 | > 10000 | 3500 | 3100 | 387 | – | – |
| COc1nc(N(C(=O)OC(C)(C)C)c2ccc3c(c2)COB3O)ccc1C#N [C4, tert-Butyl 5-cyano-6-methoxypyridin-2-yl(1-hydroxy-1,3-dihydrobenzo[c][1,2]oxaborol-5-yl)carbamate] | 360 | 220 | 370 | 33000 | 400 | 6000 | 180 | 5770 | – |
| COc1nc(Nc2ccc3c(c2)COB3O)ccc1C#N [C5, 6-(1-hydroxy-1,3-dihydrobenzo[c][1,2]oxaborol-5-ylamino)-2-methoxynicotinonitrile] | 260 | 210 | 300 | 23000 | 700 | 3700 | 340 | 2740 | – |
| CC1=NS(=O)(=O)c2cc(Cl)ccc2N1 [diazoxide] | – | – | – | – | – | – | – | – | 3.8 |
